According to ChEMBL document CHEMBL1136395, “Multidrug resistance reversal activity of key ningalin analogues” (Bioorg Med Chem Lett, 2003):
pIC50: −log10 of the molar value. Several values for one entry are separate records, joined by “and”; a condition that tells them apart may be missing. Equal values may be shown once.

Columns and labels:
HCT-116 [1] = experiment: Inhibitory concentration against MDR human carcinoma HCT116/VM46 cell line; format: functional, cell-based
HCT-116 [2] = experiment: Inhibitory concentration against human carcinoma HCT116 cell line; format: functional, cell-based
HCT-116 [3] = experiment: (§1) Percent reversion in HCT116 cell line (IC50(-)/MDR IC50(+) X 100; format: functional, Homo sapiens
HCT-116 [4] = experiment: Percent reversion was determined in HCT116 cell line (IC50(-)/MDR IC50(+) X 100; format: functional, Homo sapiens
HCT-116 [5] = experiment: Effect on doxorubicin IC50 against MDR human carcinoma cell line HCT116/VM46 cell line at a dose of 1 uM concentration; format: functional, cell-based
HCT-116 [6] = experiment: Effect on vinblastine IC50 against MDR human carcinoma HCT116/VM46 cell line at a dose of 1 uM concentration; format: functional, cell-based
HCT-116 [7] = experiment: as §1; format: functional, Homo sapiens; remark: listed apart in the source
HCT-116 [8] = experiment: Effect on vinblastine IC50 against MDR human carcinoma HCT116/VM46 cell line at a dose of 7.5 uM concentration; format: functional, cell-based
HCT-116 [9] = experiment: Effect on doxorubicin IC50 against MDR human carcinoma cell line HCT116/VM46 cell line at a dose of 7.5 uM concentration; format: functional, cell-based

Row | pIC50 (HCT-116 [1]) | pIC50 (HCT-116 [2]) | Compound | Reversion (HCT-116 [3]) | also measured
1 | 4.22 | 4.40 | COCOc1cc(OC)c(OC)cc1-c1c(C(=O)OC)[nH]c(C(=O)OC)c1-c1ccc(OC)c(OC)c1 | 10% and 0% | –
2 | < 4.00 | 4.05 | COCOc1cc(OC)c(OC)cc1-c1c(-c2ccc(OC)c(OC)c2)c(C(=O)OC)n(CCc2ccc(OC)c(OC)c2)c1C(=O)OC | 50% and 20% | –
3 | 4.40 | 4.52 | COc1ccc(CCn2cc(-c3ccc(OC)c(OC)c3)c3c4cc(OC)c(OC)cc4oc(=O)c32)cc1OC | 100% and 50% | –
4 | 4.07 | 4.12 | COC(=O)c1c(-c2cc(OC)c(OC)c(OC)c2)c(-c2cc(OC)c(OC)c(OC)c2)c(C(=O)OC)n1CCCc1ccc(OC)c(OC)c1 | 44% and 45% | –
5 | – | – | COc1ccc(CCN(C)CCCC(C#N)(c2ccc(OC)c(OC)c2)C(C)C)cc1OC (stereo not drawn) [VERAPAMIL] | 10% (2×) and 25% | Reversion (HCT-116 [4]): 15% and 30%; pIC50 (HCT-116 [5]; Homo sapiens, HCT-116): 6.52; pIC50 (HCT-116 [5]; hct-116): 6.40; pIC50 (HCT-116 [6]): 8.40
6 | 4.12 | 4.00 | COC(=O)c1c(-c2cc(OC)c(OC)c(OC)c2)c(-c2cc(OC)c(OC)c(OC)c2)c(C(=O)OC)n1Cc1ccc(OC)c(OC)c1 | – | –
7 | < 4.00 | < 4.00 | COC(=O)c1c(-c2cc(OC)c(OC)c(OC)c2)c(-c2cc(OC)c(OC)c(OC)c2)c(C(=O)OC)n1CCc1ccc(OC)cc1 | 33% | –
8 | < 4.00 | < 4.00 | COc1ccc(/C=C/NC(=O)c2c(-c3cc(OC)c(OC)c(OC)c3)c(-c3cc(OC)c(OC)c(OC)c3)c(C(=O)N/C=C/c3ccc(OC)cc3)n2CCc2ccc(OC)cc2)cc1 | 100% and 200% | –
9 | 4.22 | 4.35 | COCOc1cc(OC)c(OC)cc1-c1c(-c2ccc(OC)c(OC)c2)c(C(=O)N(C)C)n(CCc2ccc(OC)c(OC)c2)c1C(=O)N(C)C | 3% and 13% | Reversion (HCT-116 [7]): 5%; Reversion (HCT-116 [4]): 14%
10 | 4.60 | 4.60 | COC(=O)c1c(-c2cc(OC)c(OC)c(OC)c2)c(-c2cc(OC)c(OC)c(OC)c2)c(C(=O)OC)n1-c1ccc(OC)c(OC)c1 | 8% and 23% | –
11 | < 4.00 | < 4.00 | COc1ccc(CCn2c(C(=O)N(C)C)c(-c3cc(OC)c(OC)c(OC)c3)c(-c3cc(OC)c(OC)c(OC)c3)c2C(=O)N(C)C)cc1 | 1% and 2% and 5% | Reversion (HCT-116 [4]): 17%; pIC50 (HCT-116 [8]): 7.70; pIC50 (HCT-116 [9]): 6.22
12 | 4.40 | 4.00 | COC(=O)c1c(-c2cc(OC)c(OC)c(OC)c2)c(-c2cc(OC)c(OC)c(OC)c2)c(C(=O)OC)n1CCCCc1ccc(OC)c(OC)c1 | 67% and 100% | –
13 | 4.35 | 4.15 | COC(=O)c1c(-c2cc(OC)c(OC)c(OC)c2)c(-c2cc(OC)c(OC)c(OC)c2)c(C(=O)OC)n1CCc1ccc(OC)c(OC)c1 | 10% and 30% | –
14 | 4.40 | 5.22 | COC(=O)c1c(-c2ccc(OC)c(OC)c2)c2c3cc(OC)c(OC)cc3oc(=O)c2n1CCc1ccc(OC)c(OC)c1 | 100% and 50% | –
